Experimental data published in patent US9797002B2, “Methods and kits for genome-wide methylation of GpC sites and genome-wide determination of chromatin structure” (UNIVERSITY OF SOUTHERN CALIFORNIA, priority 2010, dated 2017).

Tested on: LD419
Assay: RT-PCR analysis of L1-MET reactivation after 5-Aza-CdR treatment
Type: cell-based, human
Settings: LD419 fibroblast cell line, 1 or 3 μM 5-Aza-CdR for 24 hours (day 3 after treatment), β-actin control
Description: (A) The functional domains of MET include the signal peptide (SP), sema domain at the N-terminus, the PSI domain, IPT repeats, the transmembrane domain (TM), and the kinase domain at the C-terminus. The structure of truncated MET proteins 1 and 2 are shown, encoded by transcripts derived from placenta (GenBank accession no. BX334980) and a bladder carcinoma cell line (BF208095), respectively. (B) The two […] transcripts, truncated L1-MET-1 (T-MET-1) and truncated L1-MET-2 (T-MET-2), were cloned into a pMEV expression vector with 2 HA tags fused at the N-terminal. Hela cells were transfected with either the empty pMEV vector, pMEV T-MET-1, or pMEV T-MET-2 and protein was extracted after 48 hours. The expression of truncated MET-1 (90 kDa) and truncated MET-2 (60 kDa) was detected by western blot using an HA antibody. (C) Results of 5′RACE reveal the start site for L1-MET within the L1 element. The transcriptional start site of L1-MET was confirmed by 5′RACE in the T24 cell line which expressed L1-MET. The underlined sequence is located inside of the LINE-1. […] Found at: doi:10.1371/journal.pgen. 1000917.s002 (1.22 MB TIF)
The transcript from the L1-MET anti-sense promoter contains its own exons 1 and 2, referred to as L1-MET exon 1 and L1-MET exon 2 (FIG. 7A). […]
Quantitative RT-PCR. Expression was determined by quantitative RT-PCR as described previously.

Nc1ncn([C@H]2C[C@H](O)[C@@H](CO)O2)c(=O)n1 [5-aza-deoxycytidine]
expression (reactivation) of the L1-MET transcript: lead to expression of L1-MET
expression (reactivation) of the L1-MET transcript (listed as 5-Aza-CdR): reactivation of L1-MET
